From patent EP2607478A1, “Phenanthroline treated MSC” (Universiteit Twente, priority 2011, dated 2013)

Assays:
MSCs [1] = test: Gene expression analysis by real-time qPCR in treated MSCs; type: cell-based, Human; settings: for expression of Il-8, VEGF, KDR and Foxc2: 2 days treatment, medium refreshed, 2 more days in basic medium (Figure 8); for VEGF expression: after 2 days of treatment and 2 more days of incubation with fresh medium (Figure 8)
Protocol: MSCs were seeded in triplicate in 6-well plates at 5000 cells/cm^2 and allowed to attach for 10-15 hours in proliferation medium. Upon reaching near confluency, cells were treated as described above. After 2 days of treatment and 2 subsequent days of incubation with fresh medium, cells were lysed immediately with TRIzol. RNA was isolated using a Bioke RNA II nucleospin RNA isolation kit (Machery Nagel) and RNA concentrations were measured using an ND100 spectrophotometer (Nanodrop technologies, USA). cDNA was synthesized from 100 ng of RNA, using iScript (BioRad) according to the manufacturer's protocol. For qualitative PCR, a master mix, containing distilled water, forward primer, reverse primer (Sigma Genosys), BSA, and SYBR green I mix (all from Invitrogen) was prepared. Real-time qPCR was performed in a Light-Cycler (Roche). Light-Cycler data was analyzed using the fit points method of Light-Cycler software. The baseline was set at the lower log-linear part above baseline noise and the crossing […] (Ct value) was determined. Ct values were normalized to the 18S housekeeping gene and delta Ct (Ct, control ― Ct, sample) was used to calculate the upregulation in gene expression (53).

MSCs [2] = test: Protein expression analysis (Luminex assay) of treated MSCs; type: cell-based, Human; settings: primary MSCs, 2 days; for VEGF secretion / secretion of IL-8: 150 µM DFO or 200 µM PHE, measured in cell lysates; for secretion of IL-8: basic 15-25 pg/mL
Protocol: MSCs were seeded at 5000 cells/cm^2 in T25 flasks. […] After 2 days, cells were lysed with 250 µL RIPA buffer with addition of protease/phosphatase inhibitors (Roche). Total protein concentrations were determined using a BCA kit (Pierce) and 10 µg of total protein was used to determine concentrations of VEGF, IL-8, basic fibroblast growth factor (bFGF), […] stimulating factor (G-CSF) and epidermal growth factor (EGF) using a Luminex assay (Invitrogen) according to the manufacturer's protocol. Briefly, cells and standards were incubated with fluorescent beads, followed by incubation with a biotinylated detection antibody. After incubation with streptavidin-R-Phycoerythrin and washing, both the fluorescence of the coupled beads and the R-phycoerythrin were measured using a Luminex® FlexMap™.

[3] = 200 µM PHE, compared to DFO and hypoxia

Structure (SMILES) | expression of Il-8, VEGF, KDR and Foxc2 (MSCs [1]) | VEGF expression (MSCs [1]) | VEGF secretion (MSCs [2]) | secretion of IL-8 (MSCs [2]) | secretion of basic fibroblast growth factor (bFGF) (MSCs [2]; [3]) | secretion of growth-colony stimulating factor (G-CSF) (MSCs [2]; [3])
c1cnc2c(c1)ccc1cccnc12 [PHE, 1, 10-phenanthroline] | still significantly increased | still highly expressed | 65 pg/mL | 300 to 500 pg/mL | reduced | reduced
CC(=O)N(O)CCCCCNC(=O)CCC(=O)N(O)CCCCCNC(=O)CCC(=O)N(O)CCCCCN [DFO, reference compound] | returned to basal levels | comparable to non-treated cells | 140 pg/mL | 15 to 25 pg/mL | – | –
